Measured values: patent publication US4129721A, “A-40104 antibiotics and process for production thereof” (priority 1977, dated 1978)
Values after ≈ are worked out from the molar mass of the structure shown. Where two headings read alike, the source gives them in different places.

Assays:
[1] = test system: Hemophilus influenzae Dick.; assay: gradient-plate agar-dilution method; format: cell-based; settings: Haemophilus influenzae
[2] = test system: Hemophilus influenzae 260; assay: gradient-plate agar-dilution method; format: cell-based; settings: Haemophilus influenzae
Streptococcus pyogenes = assay: gradient-plate agar-dilution method; format: cell-based
[3] = test system: Streptococcus sp. X-66 (Group D); assay: gradient-plate agar-dilution method; format: cell-based
[4] = test system: Neisseria gonorrhea Lind.; assay: gradient-plate agar-dilution method; format: cell-based
[5] = test system: Streptococcus sp. 9960 (Group D); assay: gradient-plate agar-dilution method; format: cell-based
[6] = test system: Hemophilus influenzae 259; assay: gradient-plate agar-dilution method; format: cell-based; settings: Haemophilus influenzae
[7] = test system: Hemophilus influenzae Brun; assay: gradient-plate agar-dilution method; format: cell-based; settings: Haemophilus influenzae
[8] = test system: Neisseria gonorrhea Sand.; assay: gradient-plate agar-dilution method; format: cell-based
[9] = test system: Hemophilus influenzae 251; assay: gradient-plate agar-dilution method; format: cell-based; settings: Haemophilus influenzae
[10] = test system: Streptococcus pyogenes C203; assay: experimental bacterial infection in mice; format: in vivo; settings: sc, two doses, challenge 1,690 × LD50 (ip), read-out: ED50 × 2
Mycoplasma synoviae = assay: in vitro broth-dilution studies, mycoplasma; format: cell-based
Excerpt: (§1) The minimal inhibitory concentrations (MIC's) of A-40104 factor A; 19,20-dihydro-A-40104 factor A; and the tetraacetyl derivative of A-40104A against various mycoplasma species, as determined by in vitro broth-dilution studies, are summarized in Table IX.

Mycoplasma gallisepticum = assay: in vitro broth-dilution studies, mycoplasma; format: cell-based
Excerpt: as §1

Mycoplasma hyorhinis = assay: in vitro broth-dilution studies, mycoplasma; format: cell-based
Excerpt: as §1

Mycoplasma hyopneumoniae = assay: in vitro broth-dilution studies, mycoplasma; format: cell-based
Excerpt: as §1

[11] = test system: Streptococcus pneumoniae BI-492; assay: experimental bacterial infection in mice; format: in vivo; settings: BI492, sc, two doses, challenge 340 × LD50 (ip), read-out: ED50 × 2
[12] = test system: experimental bacterial infections; assay: experimental bacterial infections in mice (general statement); format: in vivo
Method: When two doses of these compounds were administered to mice in illustrative infections, the activity observed was measured as an ED50 value [effective dose in mg./kg. to protect 50 percent of the test animals; see Warren Wick, et al., J. Bacteriol. 81, 233-235 (1961)].

Pasteurella hemolytica = assay: standard in vitro tests, Pasteurella; format: cell-based
Excerpt: (§2) Another veterinary aspect of this invention is the activity of the A-40104 antibiotics against Pasteurella species. P. multocida, for example, is a causative agent of respiratory infection in cattle, poultry, and swine. P. hemolytica is a major cause of respiratory disease in cattle. The activity of A-40104 factor A and its dihydro derivative against Pasteurella, as determined by standard in vitro tests, is summarized in Table X.

[13] = test system: Pasteurella multocida (bovine); assay: standard in vitro tests, Pasteurella; format: cell-based
Excerpt: as §2

[14] = test system: Streptococcus pneumoniae Bi-343; assay: experimental bacterial infection in mice; format: in vivo; settings: BI343, sc, two doses, challenge 30 × LD50 (ip), read-out: ED50 × 2
[15] = test system: Staphylococcus aureus 3055; assay: experimental bacterial infection in mice; format: in vivo; settings: two doses, read-out: ED50 × 2
[16] = acute toxicity, intraperitoneal injection in mice; settings: mouse, in vivo, ip
Excerpt: A special advantage of the A-40104 antibiotics is that they are relatively nontoxic.

swine dysentery = settings: W. E. Brown et al., U.S. Pat. No. 4,041,175; cited from earlier work

Compound: CC1(C)S[C@@H]2[C@H](NC(=O)[C@H](N)c3ccccc3)C(=O)N2[C@H]1C(=O)O [Ampicillin, reference compound]
- MIC [1]: 0.5 µg/mL (≈ 1.43 µM)
- MIC [2]: 70 µg/mL (≈ 200 µM)
- MIC (Streptococcus pyogenes): < 0.01 µg/mL
- MIC [3]: 0.8 µg/mL (≈ 2.29 µM)
- MIC [4]: 0.5 µg/mL (≈ 1.43 µM)
- MIC [5]: 0.6 µg/mL (≈ 1.72 µM)
- MIC [6]: 70 µg/mL (≈ 200 µM)
- MIC [7]: 0.5 µg/mL (≈ 1.43 µM)
- MIC [8]: 0.07 µg/mL (≈ 0.2 µM)
- MIC [9]: 70 µg/mL (≈ 200 µM)

Compound: CCC1(C)CC(OC(=O)CO[C@@H]2OC[C@@H](O)[C@H](O)[C@H]2O)C2(C)C(C)CCC3(CCC(=O)C32)C(C)C1O (some centres unmarked) [Dihydro-A-40104A, 19,20-dihydro A-40104 factor A]
- ED50 [10]: 5.8 mg/kg
- minimal inhibitory concentration (MIC) (Mycoplasma synoviae): 0.195
- minimal inhibitory concentration (MIC) (Mycoplasma gallisepticum): 0.195
- minimal inhibitory concentration (MIC) (Mycoplasma hyorhinis): 0.195
- minimal inhibitory concentration (MIC) (Mycoplasma hyopneumoniae): 0.097
- ED50 [11]: 15.2 mg/kg
- in vivo antimicrobial activity [12]: have shown in vivo antimicrobial activity
- MIC (Pasteurella hemolytica): 16.5 µg/mL (≈ 32.2 µM)
- MIC [13]: 6.25 µg/mL (≈ 12.2 µM)
- ED50 [14]: 35 mg/kg
- ED50 ([15]; Staphylococcus aureus, 3055, po, oral, challenge 500 × LD50 (ip)): 27 mg/kg
- ED50 ([15]; Staphylococcus aureus, 3055, po, oral, challenge 3,400 × LD50 (ip)): 28 mg/kg
- ED50 ([15]; Staphylococcus aureus, 3055, sc, sc, challenge 69.5 × LD50 (ip)): ≤ 4.4 mg/kg

Compound: C=CC1(C)CC(OC(=O)CO[C@@H]2OC[C@@H](OC(C)=O)[C@H](OC(C)=O)[C@H]2OC(C)=O)C2(C)C(C)CCC3(CCC(=O)C32)C(C)C1OC(C)=O (some centres unmarked) [Tetraacetyl A-40104A, tetraacetyl derivative of A-40104 factor A]
- minimal inhibitory concentration (MIC) (Mycoplasma synoviae): 50.0
- minimal inhibitory concentration (MIC) (Mycoplasma gallisepticum): 12.5
- minimal inhibitory concentration (MIC) (Mycoplasma hyorhinis): 25.0
- minimal inhibitory concentration (MIC) (Mycoplasma hyopneumoniae): 12.5
- LD50 [16]: > 300 mg/kg

Compound: C=C[C@]1(C)C[C@@H](OC(=O)CO)[C@]2(C)[C@H](C)CC[C@]3(CCC(=O)[C@H]32)[C@@H](C)[C@@H]1O [pleuromutilin]
- effect in treatment of swine dysentery (swine dysentery): effective in the treatment of swine dysentery
